The values that follow come from patent US7598417B2, “Substituted fluoroethyl ureas as alpha 2 adrenergic agents” (Allergan, Inc., priority 2007, dated 2009).

The target of the first assay is T1, alpha2A receptor (Homo sapiens, UniProt P08913).
T1 construct: expressed in transfected cells; host or cells: NIH-3T3
T1 sequence (P08913 1-465): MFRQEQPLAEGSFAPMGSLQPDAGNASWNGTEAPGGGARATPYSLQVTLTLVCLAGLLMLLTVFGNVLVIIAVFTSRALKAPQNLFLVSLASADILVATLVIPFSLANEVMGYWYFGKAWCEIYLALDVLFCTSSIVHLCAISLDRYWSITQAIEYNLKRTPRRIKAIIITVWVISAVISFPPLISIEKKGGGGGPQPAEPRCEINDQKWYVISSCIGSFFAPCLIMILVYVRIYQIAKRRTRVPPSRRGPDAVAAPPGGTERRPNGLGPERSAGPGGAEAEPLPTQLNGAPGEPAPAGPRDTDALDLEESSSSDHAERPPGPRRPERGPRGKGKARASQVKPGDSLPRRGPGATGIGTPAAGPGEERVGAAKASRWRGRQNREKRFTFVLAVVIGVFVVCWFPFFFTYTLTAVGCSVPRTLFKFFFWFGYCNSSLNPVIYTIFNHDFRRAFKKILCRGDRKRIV
In words: Receptor Selection and Amplification Technology (RSAT) assay, alpha2A. As to conditions: RSAT, NIH-3T3 cells cotransfected with receptor and Gq/i5; not active = not active at concentrations less than 10 micromolar. In kind it is cell-based. How it is done: (§1) Receptor Selection and Amplification Technology (RSAT) Assay
(§2) The RSAT assay measures a receptor-mediated loss of contact inhibition that results in selective proliferation of receptor-containing cells in a mixed population of confluent cells. The increase in cell number is assessed with an appropriate transfected marker gene such as β-galactosidase, the activity of which can be easily measured in a 96-well format. Receptors that activate the G protein, Gq, elicit this response. Alpha2 receptors, which normally couple to Gi, activate the RSAT response when coexpressed with a hybrid Gq protein that has a Gi receptor recognition domain, called Gq/i5.
(§3) NIH-3T3 cells are plated at a density of 2×10^6 cells in 15 cm dishes and maintained in Dulbecco's modified Eagle's medium supplemented with 10% calf serum. One day later, cells are cotransfected by calcium phosphate precipitation with mammalian expression plasmids encoding p-SV-β-galactosidase (5-10 μg), receptor (1-2 μg) and G protein (1-2 μg). 40 μg salmon sperm DNA may also be included in the transfection mixture. Fresh media is added on the following day and 1-2 days later, cells are harvested and frozen in 50 assay aliquots. Cells are thawed and 100 μl added to 100 μl aliquots of various concentrations of drugs in triplicate in 96-well dishes. Incubations continue 72-96 hr at 37° C. After washing with phosphate-buffered saline, β-galactosidase enzyme activity is determined by adding 200 μl of the chromogenic substrate (consisting of 3.5 mM o-nitrophenyl-β-D-galactopyranoside and 0.5% nonidet P-40 in phosphate buffered saline), incubating overnight at 30° C. and measuring optical density at 420 nm. The absorbance is a measure of enzyme activity, which depends on cell number and reflects a receptor-mediated cell proliferation. The efficacy or intrinsic activity is calculated as a ratio of the maximal effect of the drug to the maximal effect of a standard full agonist for each receptor subtype. Brimonidine, also called UK14304, the chemical structure of which is shown below, is used as the standard agonist for the alpha2A, alpha2B and alpha2C receptors. The EC50 is the concentration at which the drug effect is half of its maximal effect.
(§4) EC50 values are nanomolar. NA stands for “not active” at concentrations less than 10 micromolar. IA stands for “intrinsic activity.”
For the molecule `O=C(NCCF)NC1CCc2ccc(F)cc21` (stereo not shown), the “Alpha 2A EC50” value is reported as “not active”.
As for `O=C(NCCF)NC1CCc2ccc(Br)cc21` (stereo not shown), the “Alpha 2A EC50” value is given as “not active”.
Take `O=C(NCCF)N[C@H]1CCc2ccccc21`: the “Alpha 2A EC50” value is “not active”.
The same measure, in the same setting: as for `Cc1ccc2c(c1)CCC2NC(=O)NCCF` (stereo not shown), the entry is “not active”; as for `O=C(NCCF)NCC1CCc2ccccc21` (stereo not shown), “not active”.
On the same count and under the same terms, as for `COc1ccc2c(c1)CC(NC(=O)NCCF)C2` (stereo not shown), the entry is “not active”; as for `Cc1cccc2c1CC(NC(=O)NCCF)C2` (stereo not shown), “not active”.
The same measure, in the same setting: as for `COc1cccc2c1CC(NC(=O)NCCF)C2` (stereo not shown), the entry is “not active”; as for `Cc1ccc2c(c1)CC(NC(=O)NCCF)C2` (stereo not shown), “not active”; as for `O=C(NCCF)NC1Cc2ccc(Cl)cc2C1` (stereo not shown), “not active”.
`O=C(NCCF)NC1Cc2cccc(Br)c2C1` (stereo not shown): the “Alpha 2A EC50” value is “not active”.
On the same count and under the same terms, as for `O=C(NCCF)NC1Cc2cccc(F)c2C1` (stereo not shown), the entry is “not active”.

The next assay concerns the target T2, alpha2B receptor (Homo sapiens, UniProt P18089).
T2 construct: expressed in transfected cells; host or cells: NIH-3T3
T2 sequence (P18089 1-450): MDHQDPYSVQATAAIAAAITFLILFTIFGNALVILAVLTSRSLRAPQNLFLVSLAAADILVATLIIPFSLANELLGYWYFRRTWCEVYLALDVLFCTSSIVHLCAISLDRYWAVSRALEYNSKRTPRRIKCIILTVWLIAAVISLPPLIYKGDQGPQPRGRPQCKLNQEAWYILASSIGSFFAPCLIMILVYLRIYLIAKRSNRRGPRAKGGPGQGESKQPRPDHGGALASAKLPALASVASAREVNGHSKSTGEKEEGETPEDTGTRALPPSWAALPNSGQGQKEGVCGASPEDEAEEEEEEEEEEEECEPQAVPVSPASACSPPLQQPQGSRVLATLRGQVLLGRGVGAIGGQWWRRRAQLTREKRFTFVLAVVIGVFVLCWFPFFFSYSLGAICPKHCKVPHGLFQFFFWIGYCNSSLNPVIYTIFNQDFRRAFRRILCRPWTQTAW
Nature of the assay: Receptor Selection and Amplification Technology (RSAT) assay, alpha2B. In kind it is cell-based. The conditions noted are these: RSAT, NIH-3T3 cells cotransfected with receptor and Gq/i5; not active = not active at concentrations less than 10 micromolar; read-out: Alpha 2B EC50. On the procedure: as §1, §2, §3
The results of the RSAT assay with several exemplary compounds of the invention are disclosed in Table 1 above together with the chemical formulas of these exemplary compounds. EC50 values are nanomolar. NA stands for “not active” at concentrations less than 10 micromolar. IA stands for “intrinsic activity.”
Take `O=C(NCCF)NC1CCc2ccc(F)cc21` (stereo not shown): the concentration for a half-maximal effect (EC50) (commonly the midpoint of the concentration-response curve) was determined as 0.02 µM.
Turning to `O=C(NCCF)NC1CCc2ccc(Br)cc21` (stereo not shown), the EC50 is 0.302 µM.
The same measure, in the same setting: as for `O=C(NCCF)N[C@H]1CCc2ccccc21`, the figure is 0.0016 µM; as for `Cc1ccc2c(c1)CCC2NC(=O)NCCF` (stereo not shown), 0.247 µM.
On to `O=C(NCCF)NCC1CCc2ccccc21` (stereo not shown), for which the EC50 turned out to be 0.38 µM.
In the case of `COc1ccc2c(c1)CC(NC(=O)NCCF)C2` (stereo not shown), the concentration giving a half-maximal response (EC50) was 1.37 µM.
As for `Cc1cccc2c1CC(NC(=O)NCCF)C2` (stereo not shown), the 50% effective concentration (EC50) was 0.1 µM.
Regarding `COc1cccc2c1CC(NC(=O)NCCF)C2` (stereo not shown), the concentration for a half-maximal effect (EC50) is 0.0075 µM.
Turning to `Cc1ccc2c(c1)CC(NC(=O)NCCF)C2` (stereo not shown), the half-maximal effective concentration (EC50) amounted to 0.637 µM.
For `O=C(NCCF)NC1Cc2ccc(Cl)cc2C1` (stereo not shown), the EC50 was determined as 1.78 µM.
On to `O=C(NCCF)NC1Cc2cccc(Br)c2C1` (stereo not shown), for which the concentration giving a half-maximal response (EC50) was 0.156 µM.
On the same count and under the same terms, as for `O=C(NCCF)NC1Cc2cccc(F)c2C1` (stereo not shown), the figure is 0.021 µM.

The assay is the same for the next values; noted with them: ratio of maximal effect of the drug to maximal effect of standard full agonist brimonidine (UK14304).
As to `O=C(NCCF)NC1CCc2ccc(F)cc21` (stereo not shown), the “Alpha 2B IA (intrinsic activity)” value is 0.54.
Turning to `O=C(NCCF)NC1CCc2ccc(Br)cc21` (stereo not shown), the “Alpha 2B IA (intrinsic activity)” value came out at 0.52.
`O=C(NCCF)N[C@H]1CCc2ccccc21`: the “Alpha 2B IA (intrinsic activity)” value is reported as 1.0.
On to `Cc1ccc2c(c1)CCC2NC(=O)NCCF` (stereo not shown), for which the “Alpha 2B IA (intrinsic activity)” value came out at 0.71.
As for `O=C(NCCF)NCC1CCc2ccccc21` (stereo not shown), the “Alpha 2B IA (intrinsic activity)” value is 0.76.
Regarding `COc1ccc2c(c1)CC(NC(=O)NCCF)C2` (stereo not shown), the “Alpha 2B IA (intrinsic activity)” value turned out to be 0.45.
As for `Cc1cccc2c1CC(NC(=O)NCCF)C2` (stereo not shown), the “Alpha 2B IA (intrinsic activity)” value turned out to be 0.98.
In the case of `COc1cccc2c1CC(NC(=O)NCCF)C2` (stereo not shown), the “Alpha 2B IA (intrinsic activity)” value was determined as 1.57.
Take `Cc1ccc2c(c1)CC(NC(=O)NCCF)C2` (stereo not shown): the “Alpha 2B IA (intrinsic activity)” value came to 0.6.
For `O=C(NCCF)NC1Cc2ccc(Cl)cc2C1` (stereo not shown), the “Alpha 2B IA (intrinsic activity)” value was 0.31.
`O=C(NCCF)NC1Cc2cccc(Br)c2C1` (stereo not shown): the “Alpha 2B IA (intrinsic activity)” value is 0.45.
For the molecule `O=C(NCCF)NC1Cc2cccc(F)c2C1` (stereo not shown), the “Alpha 2B IA (intrinsic activity)” value is reported as 0.68.

A further assay deals with T3, alpha2C receptor (Homo sapiens, UniProt P18825).
T3 construct: expressed in transfected cells; host or cells: NIH-3T3
T3 sequence (P18825 1-462): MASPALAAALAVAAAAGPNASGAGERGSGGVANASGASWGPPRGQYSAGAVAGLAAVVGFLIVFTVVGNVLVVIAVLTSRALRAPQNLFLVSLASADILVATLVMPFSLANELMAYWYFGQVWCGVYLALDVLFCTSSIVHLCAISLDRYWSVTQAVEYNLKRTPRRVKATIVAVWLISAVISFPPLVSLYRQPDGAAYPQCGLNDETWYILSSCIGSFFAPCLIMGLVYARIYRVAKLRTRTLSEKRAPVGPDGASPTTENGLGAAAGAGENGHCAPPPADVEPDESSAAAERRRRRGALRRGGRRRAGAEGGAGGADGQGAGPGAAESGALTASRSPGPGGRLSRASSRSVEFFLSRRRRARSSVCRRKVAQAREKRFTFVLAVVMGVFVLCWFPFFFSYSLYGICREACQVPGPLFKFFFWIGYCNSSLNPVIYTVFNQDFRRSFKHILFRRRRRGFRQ
Nature of the assay: Receptor Selection and Amplification Technology (RSAT) assay, alpha2C. Type of assay: cell-based. As to conditions: RSAT, NIH-3T3 cells cotransfected with receptor and Gq/i5; not active = not active at concentrations less than 10 micromolar. On the procedure: as §1, §2, §3, §4
Regarding `Cc1ccc2c(c1)CCC2NC(=O)NCCF` (stereo not shown), the “Alpha 2C EC50” value is on record as “not active”.
Regarding `COc1ccc2c(c1)CC(NC(=O)NCCF)C2` (stereo not shown), the “Alpha 2C EC50” value is “not active”.
`Cc1ccc2c(c1)CC(NC(=O)NCCF)C2` (stereo not shown): the “Alpha 2C EC50” value was “not active”.
In the case of `O=C(NCCF)NC1Cc2ccc(Cl)cc2C1` (stereo not shown), the “Alpha 2C EC50” value was “not active”.
For the molecule `O=C(NCCF)NC1Cc2cccc(Br)c2C1` (stereo not shown), the “Alpha 2C EC50” value was “not active”.

The same assay, now with this note: RSAT, NIH-3T3 cells cotransfected with receptor and Gq/i5; not active = not active at concentrations less than 10 micromolar; read-out: Alpha 2C EC50.
As for `O=C(NCCF)NC1CCc2ccc(F)cc21` (stereo not shown), the 50% effective concentration (EC50) was 0.06 µM.
On to `O=C(NCCF)NC1CCc2ccc(Br)cc21` (stereo not shown), for which the EC50 is 0.22 µM.
Still for that read-out and setting: as for `O=C(NCCF)N[C@H]1CCc2ccccc21`, the figure is 0.0175 µM; as for `O=C(NCCF)NCC1CCc2ccccc21` (stereo not shown), > 2 µM; as for `Cc1cccc2c1CC(NC(=O)NCCF)C2` (stereo not shown), 0.454 µM.
Turning to `COc1cccc2c1CC(NC(=O)NCCF)C2` (stereo not shown), the EC50 was determined as 0.041 µM.
Same read-out and setting: as for `O=C(NCCF)NC1Cc2cccc(F)c2C1` (stereo not shown), the figure is 0.182 µM.

The same assay, now with this note: ratio of maximal effect of the drug to maximal effect of standard full agonist brimonidine (UK14304).
For `O=C(NCCF)NC1CCc2ccc(F)cc21` (stereo not shown), the “Alpha 2C IA (intrinsic activity)” value is given as 0.47.
On to `O=C(NCCF)NC1CCc2ccc(Br)cc21` (stereo not shown), for which the “Alpha 2C IA (intrinsic activity)” value is on record as 0.45.
Consider `O=C(NCCF)N[C@H]1CCc2ccccc21`, for which the “Alpha 2C IA (intrinsic activity)” value amounted to 0.47.
On the same count and under the same terms, as for `O=C(NCCF)NCC1CCc2ccccc21` (stereo not shown), the figure is 0.38; as for `Cc1cccc2c1CC(NC(=O)NCCF)C2` (stereo not shown), 0.4; as for `COc1cccc2c1CC(NC(=O)NCCF)C2` (stereo not shown), 0.63.
Regarding `O=C(NCCF)NC1Cc2cccc(F)c2C1` (stereo not shown), the “Alpha 2C IA (intrinsic activity)” value amounted to 0.32.
